{
  "source": "ChEMBL document CHEMBL1148527",
  "about": "“Structure-based design of spiro-oxindoles as potent, specific small-molecule inhibitors of the MDM2-p53 interaction” (J Med Chem, 2006)",
  "key": {"[1]": {"target": "Apoptosis regulator Bcl-2 (Homo sapiens, UniProt P10415)", "sequence (P10415 whole entry)": "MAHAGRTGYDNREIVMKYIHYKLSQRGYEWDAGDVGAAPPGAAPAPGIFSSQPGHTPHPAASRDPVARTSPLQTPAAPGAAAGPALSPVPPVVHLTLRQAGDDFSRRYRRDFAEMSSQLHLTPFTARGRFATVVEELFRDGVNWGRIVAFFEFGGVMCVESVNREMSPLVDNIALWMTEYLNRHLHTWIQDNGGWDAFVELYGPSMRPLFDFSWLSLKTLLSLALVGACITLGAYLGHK", "test": "Displacement of Flu-Bid from human recombinant Bcl2 receptor"}, "Bcl-2-like protein 1": {"target": "Bcl-2-like protein 1 (Homo sapiens, UniProt Q07817)", "sequence (Q07817 whole entry)": "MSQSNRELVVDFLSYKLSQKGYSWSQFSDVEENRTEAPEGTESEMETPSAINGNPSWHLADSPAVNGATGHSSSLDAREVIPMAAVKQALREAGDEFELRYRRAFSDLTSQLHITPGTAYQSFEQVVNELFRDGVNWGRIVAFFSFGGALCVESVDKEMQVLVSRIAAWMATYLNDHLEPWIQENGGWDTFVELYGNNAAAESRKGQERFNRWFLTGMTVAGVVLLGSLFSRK", "test": "Displacement of Flu-Bid from human recombinant Bcl-xL receptor"}},
  "data": [
    {"smiles": "CC(C)(C)C[C@H]1N[C@@H](C(=O)NCCN2CCOCC2)[C@H](c2cccc(Cl)c2F)[C@@]12C(=O)Nc1cc(Cl)ccc12", "values": [
      {"measurement": "IC50", "setting": "[1]", "value": "> 50", "unit": "µM"},
      {"measurement": "IC50", "setting": "Bcl-2-like protein 1", "value": "> 50", "unit": "µM"}
    ]}
  ]
}
